Molecular target: T1, Androgen Receptor (AR) protein (Homo sapiens, UniProt P10275, T878A)
T1 construct: endogenous in cells; host or cells: LNCaP
Test: Androgen Receptor (AR) protein degradation assay in LNCaP cells, western blotting
Assay type: cell-based
Details: 20 h; for inhibition at 0.01 µM: 0.01 μM compound; for inhibition at 0.1 µM: 0.1 μM compound; for inhibition at 1 µM: 1 μM compound
Procedure, shortened: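 AR protein level was detected by western blot (ECL) against GAPDH or β-actin controls, with 8 μg lysate protein loaded per lane after BCA quantification. Lysates came from LNCaP cells exposed to test compound for 20 h, following 3 days of growth in RPMI/10% FBS.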

T1 sequence (P10275 whole entry T878A): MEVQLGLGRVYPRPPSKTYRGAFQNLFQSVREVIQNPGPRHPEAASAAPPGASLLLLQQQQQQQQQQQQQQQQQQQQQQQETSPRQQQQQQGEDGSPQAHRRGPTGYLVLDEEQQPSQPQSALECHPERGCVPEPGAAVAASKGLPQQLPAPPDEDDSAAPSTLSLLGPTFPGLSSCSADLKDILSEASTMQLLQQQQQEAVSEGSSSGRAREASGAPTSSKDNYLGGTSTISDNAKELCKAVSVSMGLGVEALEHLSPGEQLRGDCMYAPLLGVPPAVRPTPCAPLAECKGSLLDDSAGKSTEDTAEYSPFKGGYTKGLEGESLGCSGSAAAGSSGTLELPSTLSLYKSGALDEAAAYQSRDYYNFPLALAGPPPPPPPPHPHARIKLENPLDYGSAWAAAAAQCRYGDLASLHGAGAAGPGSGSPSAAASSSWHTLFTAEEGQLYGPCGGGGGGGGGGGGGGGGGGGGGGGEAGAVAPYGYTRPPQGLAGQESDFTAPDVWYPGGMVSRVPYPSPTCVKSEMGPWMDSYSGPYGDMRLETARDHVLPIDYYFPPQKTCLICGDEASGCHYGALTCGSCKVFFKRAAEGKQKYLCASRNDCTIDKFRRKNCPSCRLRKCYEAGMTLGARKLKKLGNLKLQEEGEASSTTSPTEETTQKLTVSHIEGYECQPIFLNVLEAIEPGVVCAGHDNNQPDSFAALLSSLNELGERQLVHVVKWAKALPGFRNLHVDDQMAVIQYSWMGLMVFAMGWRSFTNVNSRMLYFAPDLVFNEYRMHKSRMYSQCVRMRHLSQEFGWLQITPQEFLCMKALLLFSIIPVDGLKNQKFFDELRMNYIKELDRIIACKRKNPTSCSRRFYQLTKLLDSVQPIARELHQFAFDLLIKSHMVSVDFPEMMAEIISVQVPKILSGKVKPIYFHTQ
T1 sequence (Q96SW2 whole entry partner): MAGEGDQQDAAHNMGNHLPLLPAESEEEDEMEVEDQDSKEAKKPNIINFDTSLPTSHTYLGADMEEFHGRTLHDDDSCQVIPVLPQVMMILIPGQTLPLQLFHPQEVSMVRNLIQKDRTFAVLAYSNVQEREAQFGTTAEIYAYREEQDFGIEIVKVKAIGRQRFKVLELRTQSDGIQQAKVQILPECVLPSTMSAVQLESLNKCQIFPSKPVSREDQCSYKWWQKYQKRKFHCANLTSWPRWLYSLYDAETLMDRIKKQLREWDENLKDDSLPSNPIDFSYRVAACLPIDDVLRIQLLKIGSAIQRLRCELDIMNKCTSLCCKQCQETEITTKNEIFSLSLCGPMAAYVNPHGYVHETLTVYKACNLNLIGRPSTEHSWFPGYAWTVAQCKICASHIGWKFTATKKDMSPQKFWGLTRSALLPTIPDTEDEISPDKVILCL

SMILES	inhibition at 0.01 µM [%]	inhibition at 0.1 µM [%]	inhibition at 1 µM [%]
CC1(CN2CCC(Oc3ccc(NC(=O)C4CCN(c5ccc(C#N)c(C(F)(F)F)c5)CC4)nc3)CC2)CN(c2ccc3c(c2)C(=O)N(C2CCC(=O)NC2=O)C3=O)C1 (stereo not shown) [Example 172, 1-(4-cyano-3-(trifluoromethyl)phenyl)-N-(5-((1-((1-(2-(2,6-dioxopiperidin-3-yl)-1,3-dioxoisoindolin-5-yl)-3-methylazetidin-3-yl)methyl)piperidin-4-yl)oxy)pyridin-2-yl)piperidine-4-carboxamide]	56	91	91
N#Cc1ccc(N2CCC(C(=O)Nc3ccc(OC4CN(CC5CCN(c6ccc7c(c6)C(=O)N(C6CCC(=O)NC6=O)C7=O)CC5)C4)cn3)CC2)cc1C(F)(F)F (stereo not shown) [Example 173, 1-(4-cyano-3-(trifluoromethyl)phenyl)-N-(5-((1-((1-(2-(2,6-dioxopiperidin-3-yl)-1,3-dioxoisoindolin-5-yl)piperidin-4-yl)methyl)azetidin-3-yl)oxy)pyridin-2-yl)piperidine-4-carboxamide]	58	90	92
N#Cc1ccc(N2CCC(C(=O)Nc3ccc(OCC4CCN(CC5CCN(c6ccc7c(c6)C(=O)N(C6CCC(=O)NC6=O)C7=O)CC5)CC4)cn3)CC2)cc1C(F)(F)F (stereo not shown) [Example 174, 1-(4-cyano-3-(trifluoromethyl)phenyl)-N-(5-((1-((1-(2-(2,6-dioxopiperidin-3-yl)-1,3-dioxoisoindolin-5-yl)piperidin-4-yl)methyl)piperidin-4-yl)methoxy)pyridin-2-yl)piperidine-4-carboxamide]	73	91	95
N#Cc1ccc(N2CCC(C(=O)Nc3ccc(OCCC4CCN(CC5CCN(c6ccc7c(c6)C(=O)N(C6CCC(=O)NC6=O)C7=O)CC5)CC4)cn3)CC2)cc1C(F)(F)F (stereo not shown) [Example 175, 1-(4-cyano-3-(trifluoromethyl)phenyl)-N-(5-(2-(1-((1-(2-(2,6-dioxopiperidin-3-yl)-1,3-dioxoisoindolin-5-yl)piperidin-4-yl)methyl)piperidin-4-yl)ethoxy)pyridin-2-yl)piperidine-4-carboxamide]	70	95	97
N#Cc1ccc(N2CCC(C(=O)Nc3ccc(OCCN4CCN(CC(=O)Nc5cccc(NC6CCC(=O)NC6=O)c5)CC4)cn3)CC2)cc1C(F)(F)F (stereo not shown) [Example 176, 1-(4-cyano-3-(trifluoromethyl)phenyl)-N-(5-(2-(4-(2-((3-((2,6-dioxopiperidin-3-yl)amino)phenyl)amino)-2-oxoethyl)piperazin-1-yl)ethoxy)pyridin-2-yl)piperidine-4-carboxamide]	-2	-22	16
N#Cc1ccc(N2CCC(C(=O)Nc3ccc(N4CCC(CN5CCN(CC(=O)Nc6cccc(NC7CCC(=O)NC7=O)c6)CC5)CC4)cn3)CC2)cc1C(F)(F)F (stereo not shown) [Example 177, 1-(4-cyano-3-(trifluoromethyl)phenyl)-N-(5-(4-((4-(2-((3-((2,6-dioxopiperidin-3-yl)amino)phenyl)amino)-2-oxoethyl)piperazin-1-yl)methyl)piperidin-1-yl)pyridin-2-yl)piperidine-4-carboxamide]	14	37	35
N#Cc1ccc(N2CCC(C(=O)Nc3ccc(OCCN4CCC(Oc5ccc6c(c5)C(=O)N(C5CCC(=O)NC5=O)C6=O)CC4)cn3)CC2)cc1C(F)(F)F (stereo not shown) [Example 178, 1-(4-cyano-3-(trifluoromethyl)phenyl)-N-(5-(2-(4-((2-(2,6-dioxopiperidin-3-yl)-1,3-dioxoisoindolin-5-yl)oxy)piperidin-1-yl)ethoxy)pyridin-2-yl)piperidine-4-carboxamide]	23	64	87
CC1(CN2CCN(CC3CCN(c4ccc5c(c4)C(=O)N(C4CCC(=O)NC4=O)C5=O)CC3)CC2)CN(c2ccc(NC(=O)C3CCN(c4ccc(C#N)c(C(F)(F)F)c4)CC3)nc2)C1 (stereo not shown) [Example 179, 1-(4-cyano-3-(trifluoromethyl)phenyl)-N-(5-(3-((4-((1-(2-(2,6-dioxopiperidin-3-yl)-1,3-dioxoisoindolin-5-yl)piperidin-4-yl)methyl)piperazin-1-yl)methyl)-3-methylazetidin-1-yl)pyridin-2-yl)piperidine-4-carboxamide]	73	98	97
CC1(CN2CCC(COc3ccc4c(c3)C(=O)N(C3CCC(=O)NC3=O)C4=O)CC2)CN(c2ccc(NC(=O)C3CCN(c4ccc(C#N)c(C(F)(F)F)c4)CC3)nc2)C1 (stereo not shown) [Example 180, 1-(4-cyano-3-(trifluoromethyl)phenyl)-N-(5-(3-((4-(((2-(2,6-dioxopiperidin-3-yl)-1,3-dioxoisoindolin-5-yl)oxy)methyl)piperidin-1-yl)methyl)-3-methylazetidin-1-yl)pyridin-2-yl)piperidine-4-carboxamide]	36	97	98
N#Cc1ccc(N2CCC(C(=O)Nc3ccc(OCC4CCN(CC5CCN(c6cc7c(cc6F)C(=O)N(C6CCC(=O)NC6=O)C7=O)CC5)CC4)cn3)CC2)cc1C(F)(F)F (stereo not shown) [Example 181, 1-(4-cyano-3-(trifluoromethyl)phenyl)-N-(5-((1-((1-(2-(2,6-dioxopiperidin-3-yl)-6-fluoro-1,3-dioxoisoindolin-5-yl)piperidin-4-yl)methyl)piperidin-4-yl)methoxy)pyridin-2-yl)piperidine-4-carboxamide]	75	93	97
N#Cc1ccc(N2CCC(C(=O)Nc3ccc(CC4CCN(CC5CCN(c6cc7c(cc6F)C(=O)N(C6CCC(=O)NC6=O)C7=O)CC5)CC4)cn3)CC2)cc1C(F)(F)F (stereo not shown) [Example 182, 1-(4-cyano-3-(trifluoromethyl)phenyl)-N-(5-((1-((1-(2-(2,6-dioxopiperidin-3-yl)-6-fluoro-1,3-dioxoisoindolin-5-yl)piperidin-4-yl)methyl)piperidin-4-yl)methyl)pyridin-2-yl)piperidine-4-carboxamide]	72	96	98
N#Cc1ccc(N2CCC(C(=O)Nc3ccc(OCC4CCN(CC5CN(c6ccc7c(c6)C(=O)N(C6CCC(=O)NC6=O)C7=O)C5)CC4)cn3)CC2)cc1C(F)(F)F (stereo not shown) [Example 183, 1-(4-cyano-3-(trifluoromethyl)phenyl)-N-(5-((1-((1-(2-(2,6-dioxopiperidin-3-yl)-1,3-dioxoisoindolin-5-yl)azetidin-3-yl)methyl)piperidin-4-yl)methoxy)pyridin-2-yl)piperidine-4-carboxamide]	72	87	93
CC1(CN2CCC(COc3ccc(NC(=O)C4CCN(c5ccc(C#N)c(C(F)(F)F)c5)CC4)nc3)CC2)CN(c2ccc3c(c2)C(=O)N(C2CCC(=O)NC2=O)C3=O)C1 (stereo not shown) [Example 184, 1-(4-cyano-3-(trifluoromethyl)phenyl)-N-(5-((1-((1-(2-(2,6-dioxopiperidin-3-yl)-1,3-dioxoisoindolin-5-yl)-3-methylazetidin-3-yl)methyl)piperidin-4-yl)methoxy)pyridin-2-yl)piperidine-4-carboxamide]	72	91	97
N#Cc1ccc(N2CCC(C(=O)Nc3ccc(OCC4CN(CC5CCN(c6ccc7c(c6)C(=O)N(C6CCC(=O)NC6=O)C7=O)CC5)C4)cn3)CC2)cc1C(F)(F)F (stereo not shown) [Example 185, 1-(4-cyano-3-(trifluoromethyl)phenyl)-N-(5-((1-((1-(2-(2,6-dioxopiperidin-3-yl)-1,3-dioxoisoindolin-5-yl)piperidin-4-yl)methyl)azetidin-3-yl)methoxy)pyridin-2-yl)piperidine-4-carboxamide]	85	97	99
CC1(COc2ccc(NC(=O)C3CCN(c4ccc(C#N)c(C(F)(F)F)c4)CC3)nc2)CN(CC2CCN(c3ccc4c(c3)C(=O)N(C3CCC(=O)NC3=O)C4=O)CC2)C1 (stereo not shown) [Example 186, 1-(4-cyano-3-(trifluoromethyl)phenyl)-N-(5-((1-((1-(2-(2,6-dioxopiperidin-3-yl)-1,3-dioxoisoindolin-5-yl)piperidin-4-yl)methyl)-3-methylazetidin-3-yl)methoxy)pyridin-2-yl)piperidine-4-carboxamide]	66	94	96
N#Cc1ccc(N2CCC(C(=O)Nc3ccc(OC4CCN(CC5CCN(c6ccc7c(c6)C(=O)N(C6CCC(=O)NC6=O)C7=O)CC5)CC4)nn3)CC2)cc1C(F)(F)F (stereo not shown) [Example 187, 1-(4-cyano-3-(trifluoromethyl)phenyl)-N-(6-((1-((1-(2-(2,6-dioxopiperidin-3-yl)-1,3-dioxoisoindolin-5-yl)piperidin-4-yl)methyl)piperidin-4-yl)oxy)pyridazin-3-yl)piperidine-4-carboxamide]	63	90	–
N#Cc1ccc(N2CCC(C(=O)Nc3ccc(CN4CCC(CN5CCN(c6cc7c(cc6F)C(=O)N(C6CCC(=O)NC6=O)C7=O)CC5)CC4)cn3)CC2)cc1C(F)(F)F (stereo not shown) [Example 188, 1-(4-cyano-3-(trifluoromethyl)phenyl)-N-(5-((4-((4-(2-(2,6-dioxopiperidin-3-yl)-6-fluoro-1,3-dioxoisoindolin-5-yl)piperazin-1-yl)methyl)piperidin-1-yl)methyl)pyridin-2-yl)piperidine-4-carboxamide]	1	45	–
